These cell lines were tested with O=C1NC(=O)[C@@H](c2cn3c4c(cccc24)CCC3)[C@@H]1c1c[nH]c2ccccc12 [Tivantinib] + COc1cc2c(Oc3ccc(NC(=O)C4(C(=O)Nc5ccc(F)cc5)CC4)cc3F)ccnc2cc1OCCCN1CCOCC1 [Foretinib] (partner 0.25 µM) (assay: relative viability (nuclei count vs DMSO), 5 days (fraction); higher = more cells survive). Conditions: first compound 0.3162 µM.
Procedure, shortened: (§1)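 Nuclei were stained with Hoechst during a one-step fixation (final 0.05% Triton X-100, 1% formaldehyde, 1 ug/ml Hoechst) carried out 5 days after dosing, then counted on 4× images. The cells, lung cancer lines in 1536-well plates, had been dosed by pin tool the day after seeding with one drug alone or a fixed anchor-drug dose plus five library-drug doses (not always all listed) in √10 steps. Relative viability is the nuclei count in treated wells divided by that in vehicle wells, and each value is the median of duplicate plates.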

Cell Line | relative viability
NCI-H1437 | 1.25
NCI-H2085 | 0.666
HCC-366 | 0.912
NCI-H1793 | 0.548
PC-3 [JPC-3] | 0.904
NCI-H1650 | 0.972
NCI-H1944 | 0.63
NCI-H1993 | 0.545
SK-LU-1 | 0.708
RERF-LC-KJ | 0.883

What follows are cell lines tested with O=C1NC(=O)[C@@H](c2cn3c4c(cccc24)CCC3)[C@@H]1c1c[nH]c2ccccc12 [Tivantinib] + Nc1nc2[nH]cc(CCc3ccc(C(=O)N[C@@H](CCC(=O)O)C(=O)O)cc3)c2c(=O)[nH]1 [Pemetrexed] (partner 0.2 µM) in the same assay as above. Conditions: first compound 0.01 µM.
Procedure, shortened: as §1

Cell Line | relative viability
BEN | 0.724
HCC-15 | 0.215
HCC-827 | 0.251
NCI-H441 | 0.294
LOU-NH91 | 0.394
NCI-H2023 | 0.278
A-427 | 1.01
NCI-H460 | 0.059
NCI-H1755 | 0.475
NCI-H520 | 0.695
NCI-H2405 | 1.12
SW 1573 | 0.918
NCI-H1395 | 1.03
201T | 0.328
NCI-H1975 | 0.294
HOP-62 | 0.333
NCI-H2347 | 0.405
NCI-H1355 | 1.03

Cell Line | relative viability
CAL-12T | 1.11
NCI-H1666 | 0.841
H3255 | 0.554
NCI-H23 | 0.688
NCI-H1915 | 0.423
NCI-H1437 | 0.336
NCI-H322M | 0.682
NCI-H2085 | 0.975
HCC-366 | 0.163
NCI-H1793 | 0.83
PC-3 [JPC-3] | 1.24
EKVX | 0.344
NCI-H1650 | 0.417
NCI-H1944 | 0.603
NCI-H1993 | 0.621
SK-LU-1 | 0.935
RERF-LC-KJ | 0.38

Same assay, conditions: first compound 0.03162 µM

Cell Line | relative viability
BEN | 0.71
HCC-15 | 0.221
HCC-827 | 0.257
NCI-H441 | 0.254
LOU-NH91 | 0.428
NCI-H2023 | 0.206
A-427 | 1.06
NCI-H460 | 0.0663
NCI-H1755 | 0.381
NCI-H520 | 0.716
NCI-H2405 | 1.25
SW 1573 | 0.797
NCI-H1395 | 0.843
201T | 0.281
NCI-H1975 | 0.287
HOP-62 | 0.29
NCI-H2347 | 0.454
NCI-H1355 | 1.01

Cell Line | relative viability
CAL-12T | 1.3
NCI-H1666 | 0.867
H3255 | 0.586
NCI-H23 | 0.653
NCI-H1915 | 0.482
NCI-H1437 | 0.319
NCI-H322M | 0.614
NCI-H2085 | 0.773
HCC-366 | 0.145
NCI-H1793 | 0.885
PC-3 [JPC-3] | 1.27
EKVX | 0.413
NCI-H1650 | 0.4
NCI-H1944 | 0.582
NCI-H1993 | 0.53
SK-LU-1 | 1.06
RERF-LC-KJ | 0.452

Same assay, conditions: first compound 0.1 µM

Cell Line | relative viability
BEN | 0.636
HCC-15 | 0.227
HCC-827 | 0.272
NCI-H441 | 0.254
LOU-NH91 | 0.4
NCI-H2023 | 0.253
A-427 | 0.99
NCI-H460 | 0.0596
NCI-H1755 | 0.358
NCI-H520 | 0.631
NCI-H2405 | 1.09
SW 1573 | 0.818
NCI-H1395 | 0.975
201T | 0.357
NCI-H1975 | 0.249
HOP-62 | 0.368
NCI-H2347 | 0.394
NCI-H1355 | 1

Cell Line | relative viability
CAL-12T | 1.18
NCI-H1666 | 0.853
H3255 | 0.598
NCI-H23 | 0.646
NCI-H1915 | 0.495
NCI-H1437 | 0.315
NCI-H322M | 0.588
NCI-H2085 | 0.876
HCC-366 | 0.148
NCI-H1793 | 0.832
PC-3 [JPC-3] | 1.21
EKVX | 0.425
NCI-H1650 | 0.471
NCI-H1944 | 0.619
NCI-H1993 | 0.586
SK-LU-1 | 0.96
RERF-LC-KJ | 0.445

Same assay, conditions: first compound 0.3162 µM

Cell Line | relative viability
BEN | 0.684
HCC-15 | 0.224
NCI-H441 | 0.282
LOU-NH91 | 0.468
NCI-H2023 | 0.191
A-427 | 0.961
NCI-H460 | 0.0576
NCI-H1755 | 0.439
NCI-H520 | 0.652
NCI-H2405 | 1.05
SW 1573 | 0.76
NCI-H1395 | 0.782
201T | 0.319
NCI-H1975 | 0.27
HOP-62 | 0.247
NCI-H2347 | 0.419

Cell Line | relative viability
NCI-H1355 | 1.03
CAL-12T | 1.21
NCI-H1666 | 0.673
NCI-H23 | 0.715
NCI-H1915 | 0.53
NCI-H1437 | 0.298
NCI-H2085 | 0.75
HCC-366 | 0.149
NCI-H1793 | 0.669
PC-3 [JPC-3] | 0.72
EKVX | 0.203
NCI-H1650 | 0.315
NCI-H1944 | 0.546
NCI-H1993 | 0.541
SK-LU-1 | 1.04
RERF-LC-KJ | 0.44

Source: the supplement of paper PMC10307832
